US20210094954A1, “PREPARATION METHODS AND APPLICATIONS OF 3,5-DISUBSTITUTED METHYLPYRAZOLO[1,5-A]PYRIMIDINE-7-HYDROXYLIC SALTS” (priority 2019, published 2021)
Like-named read-outs stand apart in the source and are kept apart here.

Key:
Assay type in all cases: cell-based
Bacillus cereus 2 = assay: microbe, parasite or virus in culture; conditions: Bacillus cereus, 2; 37° C., 24 hours; read-out: MIC values of in vitro antibacterial test results
Bacillus subtilis 168 = assay: microbe, parasite or virus in culture; conditions: Bacillus subtilis, 168; 37° C., 24 hours; read-out: MIC values of in vitro antibacterial test results
[1] = tested on: Enterococcus faecalis 29212; assay: microbe, parasite or virus in culture; conditions: Enterococcus faecalis, 29212; 37° C., 24 hours; read-out: MIC values of in vitro antibacterial test results
[2] = tested on: Enterococcus faecalis F2518(VRE); assay: microbe, parasite or virus in culture; conditions: Enterococcus faecalis, VRE, 24 h, read-out: MIC values of in vitro antibacterial test results
[3] = tested on: Staphylococcus aureus 29231; assay: microbe, parasite or virus in culture; conditions: Staphylococcus aureus, 29231; 37° C., 24 hours; read-out: MIC values of in vitro antibacterial test results
[4] = tested on: Staphylococcus aureus 43300(MRSA); assay: microbe, parasite or virus in culture; conditions: Staphylococcus aureus, MRSA
[5] = tested on: Staphylococcus aureus 703(MRSA); assay: microbe, parasite or virus in culture; conditions: Staphylococcus aureus, MRSA
[6] = tested on: Streptococcus pneumoniae 6303 (PRSP); assay: microbe, parasite or virus in culture; conditions: Streptococcus pneumoniae, PRSP, 24 h, read-out: MIC values of in vitro antibacterial test results
[7] = tested on: Streptococcus pneumoniae M2; assay: microbe, parasite or virus in culture; conditions: Streptococcus pneumoniae, M2; 37° C., 24 hours; read-out: MIC values of in vitro antibacterial test results
[8] = tested on: Streptococcus agalactia B group; assay: microbe, parasite or virus in culture; conditions: Streptococcus; 37° C., 24 hours; read-out: MIC values of in vitro antibacterial test results
[9] = tested on: Streptococcus pneumoniae 10351; assay: microbe, parasite or virus in culture; conditions: Streptococcus pneumoniae, 10351; 37° C., 24 hours; read-out: MIC values of in vitro antibacterial test results
[10] = tested on: Bacillus anthracis Bacillus 1; assay: microbe, parasite or virus in culture; conditions: Bacillus anthracis, 24 h, read-out: MIC values of in vitro antibacterial test results
Diphtheria bacilli = assay: organism not typed; conditions: 37° C., 24 hours; read-out: MIC values of in vitro antibacterial test results
Clostridium perfringens = assay: microbe, parasite or virus in culture; conditions: Clostridium perfringens, 24 h, read-out: MIC values of in vitro antibacterial test results
Oral Candida = assay: microbe, parasite or virus in culture; conditions: Candida
Peel fungus = assay: organism not typed; conditions: 37° C., 24 hours; read-out: MIC values of in vitro antibacterial test results
[11] = tested on: F2518(VRE), Staphylococcus aureus resistant strain 43300(MRSA), 703 (MRSA), pneumococcal resistance bacteria 6303(PRSP); assay: microbe, parasite or virus in culture; conditions: read-out: MIC values (μM)
[12] = 24 h, read-out: MIC values of in vitro antibacterial test results
[13] = 37° C., 24 hours, read-out: MIC values of in vitro antibacterial test results

SMILES	MIC (Bacillus cereus 2)	MIC (Bacillus subtilis 168)	MIC [1]	MIC [2]	MIC [3]	MIC [4, 12]	MIC [5, 12]	MIC [6]	MIC [7]	MIC [8]	MIC [9]	MIC [10]	MIC (Diphtheria bacilli)	MIC (Clostridium perfringens)	MIC (Oral Candida; read-out: MIC values (μM))	MIC (Oral Candida; [13])	MIC (Peel fungus)	MIC [11]	MIC ([4]; read-out: MIC values (μM))	MIC ([5]; read-out: MIC values (μM))
Cc1nn2c([O-])cc(-c3ccc(S(N)(=O)=O)cc3)nc2c1-c1ccc(F)cc1F.[K+] [Compound 25, Potassium 3-(2,4-difluorophenyl)-2-methyl-5-(4-sulfamoylphenyl)pyrazolo[1,5-α]pyrimidin-7-olate]	< 150 µg/mL	> 150 µg/mL	< 150 µg/mL	< 150 µg/mL	> 150 µg/mL	< 150 µg/mL	< 150 µg/mL	> 150 µg/mL	< 100 µg/mL	> 150 µg/mL	> 150 µg/mL	> 150 µg/mL	> 150 µg/mL	> 150 µg/mL	< 100 µg/mL	< 100 µg/mL	< 150 µg/mL	< 100 µg/mL	–	–
Cc1nn2c([O-])cc(-c3ccc(F)cc3F)nc2c1-c1ccc(F)cc1F.[Na+] [Compound 12, Sodium 3,5-bis(2,4-difluorophenyl)-2-methylpyrazolo[1,5-α]pyrimidin-7-olate]	< 100 µg/mL	> 150 µg/mL	< 150 µg/mL	< 150 µg/mL	> 150 µg/mL	< 150 µg/mL	< 150 µg/mL	> 150 µg/mL	< 150 µg/mL	> 150 µg/mL	> 150 µg/mL	> 150 µg/mL	> 150 µg/mL	> 150 µg/mL	–	< 150 µg/mL	< 150 µg/mL	< 100 µg/mL	–	–
Cc1nn2c([O-])cc(-c3ccc(C#N)cc3)nc2c1-c1ccc(F)cc1F.[Na+] [Compound 2, Sodium 5-(4-cyanophenyl)-3-(2,4-difluorophenyl)-2-methylpyrazolo[1,5-α]pyrimidin-7-olate]	< 100 µg/mL	< 150 µg/mL	< 100 µg/mL	< 150 µg/mL	< 100 µg/mL	< 50 µg/mL	< 50 µg/mL	< 150 µg/mL	< 150 µg/mL	< 150 µg/mL	< 100 µg/mL	> 150 µg/mL	> 150 µg/mL	> 150 µg/mL	–	< 150 µg/mL	< 150 µg/mL	< 100 µg/mL	< 50 µg/mL	< 50 µg/mL
Cc1nn2c([O-])cc(-c3ccc(C(N)=O)nc3)nc2c1-c1ccc(F)cc1F.[Na+] [Compound 32]	< 100 µg/mL	> 150 µg/mL	< 150 µg/mL	< 150 µg/mL	> 150 µg/mL	< 100 µg/mL	< 150 µg/mL	< 150 µg/mL	< 100 µg/mL	> 150 µg/mL	> 150 µg/mL	> 150 µg/mL	> 150 µg/mL	> 150 µg/mL	< 100 µg/mL	< 100 µg/mL	< 150 µg/mL	< 100 µg/mL	–	–
CC(=O)Oc1ccc(-c2cc([O-])n3nc(C)c(-c4ccc(F)cc4F)c3n2)cn1.[Na+] [Compound 33, Sodium 5-(6-acetoxypyridin-3-yl)-3-(2,4-difluorophenyl)-2-methylpyrazolo[1,5-α]pyrimidin-7-olate]	< 100 µg/mL	> 150 µg/mL	< 100 µg/mL	< 150 µg/mL	> 150 µg/mL	< 100 µg/mL	< 150 µg/mL	> 150 µg/mL	< 100 µg/mL	> 150 µg/mL	> 150 µg/mL	> 150 µg/mL	> 150 µg/mL	> 150 µg/mL	< 100 µg/mL	< 150 µg/mL	< 150 µg/mL	< 100 µg/mL	–	–
Cc1nn2c([O-])cc(-c3ccc(N(C)C)nc3)nc2c1-c1ccc(F)cc1F.[Na+] [Compound 18, Sodium 3-(2,4-difluorophenyl)-5-(6-(dimethylamino)pyridin-3-yl)-2-methylpyrazolo[1,5-α]pyrimidin-7-olate]	< 100 µg/mL	> 150 µg/mL	< 150 µg/mL	< 150 µg/mL	> 150 µg/mL	< 100 µg/mL	< 150 µg/mL	> 150 µg/mL	< 100 µg/mL	> 150 µg/mL	> 150 µg/mL	> 150 µg/mL	> 150 µg/mL	> 150 µg/mL	–	> 150 µg/mL	< 150 µg/mL	< 100 µg/mL	–	–
Cc1nn2c([O-])cc(-c3ccc(C#N)nc3)nc2c1-c1ccc(F)cc1F.[K+] [Compound 27, Potassium 5-(6-cyanopyridin-3-yl)-3-(2,4-difluorophenyl)-2-methylpyrazolo[1,5-α]pyrimidin-7-olate]	< 100 µg/mL	< 100 µg/mL	< 100 µg/mL	< 150 µg/mL	< 100 µg/mL	< 150 µg/mL	< 100 µg/mL	< 100 µg/mL	< 100 µg/mL	> 150 µg/mL	< 100 µg/mL	> 150 µg/mL	< 150 µg/mL	< 150 µg/mL	< 100 µg/mL	< 100 µg/mL	> 150 µg/mL	< 100 µg/mL	–	–
Cc1nn2c([O-])cc(-c3ccc([O-])nc3)nc2c1-c1ccc(F)cc1F.[Na+].[Na+] [Compound 19, Disodium 3-(2,4-difluorophenyl)-2-methyl-5-(6-hydroxypyridin-3-yl)pyrazolo[1,5-α]pyrimidin-7-olate]	< 100 µg/mL	> 150 µg/mL	< 150 µg/mL	< 150 µg/mL	> 150 µg/mL	< 100 µg/mL	< 150 µg/mL	> 150 µg/mL	< 100 µg/mL	> 150 µg/mL	> 150 µg/mL	> 150 µg/mL	> 150 µg/mL	> 150 µg/mL	–	> 150 µg/mL	< 150 µg/mL	< 100 µg/mL	–	–
Cc1nn2c([O-])cc(-c3ccc(C(=O)NCCN(C)C)cc3)nc2c1-c1ccc(F)cc1F.[Na+] [Compound 31, Sodium 3-(2,4-difluorophenyl)-5-(4-((2-(dimethylamino)ethyl)carbamoyl)phenyl)-2-methylpyrazolo[1,5-α]pyrimidin-7-olate]	< 100 µg/mL	< 100 µg/mL	< 100 µg/mL	< 150 µg/mL	< 100 µg/mL	< 150 µg/mL	< 100 µg/mL	< 100 µg/mL	< 100 µg/mL	> 150 µg/mL	< 100 µg/mL	> 150 µg/mL	> 150 µg/mL	> 150 µg/mL	< 100 µg/mL	< 100 µg/mL	> 150 µg/mL	< 100 µg/mL	–	–
Cc1nn2c([O-])cc(-c3ccc(C(F)(F)F)cc3)nc2c1-c1ccc(F)cc1F.[Na+] [Compound 1, sodium 3-(2,4-difluorophenyl)-2-methyl-5-(4-(trifluoromethyl)-phenyl)pyrazolo[1,5-α]pyrimidin-7-olate]	< 100 µg/mL	< 100 µg/mL	< 100 µg/mL	< 150 µg/mL	< 100 µg/mL	< 100 µg/mL	< 150 µg/mL	< 100 µg/mL	< 100 µg/mL	< 150 µg/mL	< 100 µg/mL	> 150 µg/mL	> 150 µg/mL	> 150 µg/mL	< 100 µg/mL	< 100 µg/mL	> 150 µg/mL	< 100 µg/mL	–	–
Cc1nn2c([O-])cc(-c3ccc([N+](=O)[O-])nc3)nc2c1-c1ccc(F)cc1F.[Na+] [Compound 16, sodium 3-(2,4-difluorophenyl)-2-methyl-5-(6-nitropyridin-3-yl)pyrazolo[1,5-α]pyrimidin-7-olate]	< 100 µg/mL	< 150 µg/mL	< 100 µg/mL	< 150 µg/mL	< 100 µg/mL	< 150 µg/mL	< 100 µg/mL	< 100 µg/mL	< 150 µg/mL	> 150 µg/mL	< 100 µg/mL	> 150 µg/mL	> 150 µg/mL	> 150 µg/mL	< 100 µg/mL	< 100 µg/mL	> 150 µg/mL	< 100 µg/mL	–	–
Cc1nn2c([O-])cc(-c3ccc([O-])cc3)nc2c1-c1ccc(F)cc1F.[Na+].[Na+] [Compound 6]	< 100 µg/mL	< 100 µg/mL	< 100 µg/mL	< 150 µg/mL	< 100 µg/mL	< 100 µg/mL	< 100 µg/mL	< 150 µg/mL	< 150 µg/mL	< 150 µg/mL	< 100 µg/mL	> 150 µg/mL	> 150 µg/mL	> 150 µg/mL	< 100 µg/mL	< 100 µg/mL	< 150 µg/mL	< 100 µg/mL	–	–
